These results are taken from US7893062B2, “Pyrrolidine derivatives as dual NK1/NK3 receptor antagonists” (Hoffmann-La Roche Inc., priority 2007, dated 2011).

In one assay the target is human NK1 receptor (Homo sapiens, UniProt P25103). Put plainly: NK1 receptor affinity, [3H]substance P displacement in CHO cell membranes. Type of assay: binding. The following applies: human NK1 receptor in CHO cells, [3H]substance P 0.6 nM. As for the experimental part: The affinity of test compounds for the NK1 receptor was evaluated at human NK1 receptors in CHO cells infected with the human NK1 receptor (using the Semliki virus expression system) and radiolabelled with [^3H]substance P (final concentration 0.6 nM). Binding assays were performed in HEPES buffer (50 mM, pH 7.4) containing BSA (0.04%) leupeptin (16.8 μg/ml), MnCl2 (3 mM) and phosphoramidon (2 μM). Binding assays consisted of 250 μl of membrane suspension (approximately 1.5 μg/well in a 96 well plate), […] of buffer of displacing agent and 125 μl of [^3H]substance P. Displacement curves were determined with at least seven concentrations of the compound. The assay tubes were incubated for 60 min at room temperature after which time the tube contents were rapidly filtered under vacuum through GF/C filters presoaked for 60 min with PEI (0.3%) with 3×1 ml washes of HEPES buffer (50 mM, pH 7.4). The radioactivity retained on the filters was measured by scintillation counting. All assays were performed in duplicate in at least 2 separate experiments. NK3
Sequence of human NK1 receptor (P25103 whole entry): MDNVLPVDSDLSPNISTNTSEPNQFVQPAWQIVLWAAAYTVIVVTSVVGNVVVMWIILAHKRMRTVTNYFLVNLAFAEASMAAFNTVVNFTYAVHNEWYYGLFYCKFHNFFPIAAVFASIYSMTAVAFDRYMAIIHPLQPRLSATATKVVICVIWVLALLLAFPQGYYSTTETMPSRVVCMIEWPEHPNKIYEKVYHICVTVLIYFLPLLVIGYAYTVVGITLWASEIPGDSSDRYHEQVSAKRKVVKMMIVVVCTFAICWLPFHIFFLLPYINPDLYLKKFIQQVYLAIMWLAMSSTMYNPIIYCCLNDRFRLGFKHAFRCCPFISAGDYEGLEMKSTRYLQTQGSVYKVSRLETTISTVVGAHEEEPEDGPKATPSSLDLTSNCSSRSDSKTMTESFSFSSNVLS

For assay [1], the target named is T1, human NK3 (hNK3) receptor (Homo sapiens, UniProt P29371).
T1 construct: expressed in transfected cells
T1 sequence (P29371 1-465): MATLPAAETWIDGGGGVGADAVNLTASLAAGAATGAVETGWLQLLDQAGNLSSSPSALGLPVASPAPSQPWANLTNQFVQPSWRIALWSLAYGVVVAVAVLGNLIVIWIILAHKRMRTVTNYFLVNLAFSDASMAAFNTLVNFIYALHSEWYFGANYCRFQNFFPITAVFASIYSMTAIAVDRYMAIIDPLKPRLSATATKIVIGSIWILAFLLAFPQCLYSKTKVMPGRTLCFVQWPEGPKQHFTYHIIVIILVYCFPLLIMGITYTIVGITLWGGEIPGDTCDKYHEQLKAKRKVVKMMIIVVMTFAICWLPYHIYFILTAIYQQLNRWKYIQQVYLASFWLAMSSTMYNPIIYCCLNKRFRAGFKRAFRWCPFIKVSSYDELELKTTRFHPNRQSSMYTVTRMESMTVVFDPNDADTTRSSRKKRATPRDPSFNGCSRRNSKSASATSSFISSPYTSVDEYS
Put plainly: Recombinant hNK3 receptor affinity, [3H]SR142801 displacement. The assay is classed as binding. The following applies: recombinant hNK3 membranes, [3H]SR142801 0.3 nM. As for the experimental part:
Recombinant human NK3 (hNK3) receptor affinity was determined in a 96 well plate assay, using [^3H]SR142801 (final concentration 0.3 nM) to radiolabel the hNK3 receptor in the presence of 10 concentrations of competing compound or buffer. Non specific binding was determined using 10 μM SB222200. Assay buffer consisted of Tris-HCl (50 mM, pH 7.4), BSA (0.1%), MnCl2 (4 mM) and phosphoramidon (1 μM). Membrane preparations of hNK3 receptors (approximately 2.5 μg/well in a 96 well plate) were used to initiate the incubation for 90 min at room temperature. This assay was terminated by rapid filtration under vacuum through GF/C filters, presoaked for 90 min with PEI (0.3%), with 3×0.5 ml washes of ice-cold Tris buffer (50 mM, pH 7.4) containing 0.1% BSA. The radioactivity retained on the filters was measured by scintillation counting. All assays were performed in duplicate in at least two separate experiments.

The conditions of assay [2]: phase II trial, cited from earlier work.

In the case of `CN(C(=O)C(C)(C)c1cc(Cl)cc(Cl)c1)[C@@H]1CN(C(=O)N2CCN(S(C)(=O)=O)CC2)C[C@H]1c1ccc(F)cc1` (racemic) [Example 23, rac-2-(3,5-Dichloro-phenyl)-N-[(3S,4R)-4-(4-fluoro-phenyl)-1-(4-methanesulfonyl-piperazine-1-carbonyl)-pyrrolidin-3-yl]-N-methyl-isobutyramide], the Ki is 0.00112 µM at human NK1 receptor and 0.0924 µM in assay [1].
The like results for `Cc1cc(F)ccc1[C@@H]1CN(C(=O)N2CCN(S(C)(=O)=O)CC2)C[C@H]1N(C)C(=O)C(C)(C)c1cc(C(F)(F)F)cc(C(F)(F)F)c1` (racemic) [Example 28, rac-2-(3,5-Bis-trifluoromethyl-phenyl)-N-[(3S,4R)-4-(4-fluoro-2-methyl-phenyl)-1-(4-methanesulfonyl-piperazine-1-carbonyl)-pyrrolidin-3-yl]-N-methyl-isobutyramide] were, in that order, 0.000689 µM and 0.137 µM.
In the same order, the values of `CN(C(=O)C(C)(C)c1cc(C(F)(F)F)cc(C(F)(F)F)c1)[C@@H]1CN(C(=O)N2CCN(S(C)(=O)=O)CC2)C[C@H]1c1ccc(F)cc1` (racemic) [Example 15, rac-2-(3,5-Bis-trifluoromethyl-phenyl)-N-[(3S,4R)-4-(4-fluoro-phenyl)-1-(4-methanesulfonyl-piperazine-1-carbonyl)-pyrrolidin-3-yl]-N-methyl-isobutyramide] are 0.00206 µM and 0.155 µM.
In the same order, the values of `CN(C(=O)C(C)(C)c1cc(C(F)(F)F)cc(C(F)(F)F)c1)[C@@H]1CN(C(=O)N(CCO)CCO)C[C@H]1c1ccc(F)cc1` (racemic) [Example 21, rac-(3S,4R)-3-{[2-(3,5-Bis-trifluoromethyl-phenyl)-2-methyl-propionyl]-methyl-amino}-4-(4-fluoro-phenyl)-pyrrolidine-1-carboxylic acid bis-(2-hydroxy-ethyl)-amide] are 0.00108 µM and 0.204 µM.
For `CN(C(=O)C(C)(C)c1cc(C(F)(F)F)cc(C(F)(F)F)c1)[C@@H]1CN(C(=O)NCCO)C[C@H]1c1ccc(F)cc1` (racemic) [Example 26, rac-(3S,4R)-3-{[2-(3,5-Bis-trifluoromethyl-phenyl)-2-methyl-propionyl]-methyl-amino}-4-(4-fluoro-phenyl)-pyrrolidine-1-carboxylic acid (2-hydroxy-ethyl)-amide], the figures for the inhibition constant Ki (at human NK1 receptor; in assay [1]) were 0.000634 µM and 0.212 µM, respectively.
The like results for `CC(=O)N1CCN(C(=O)N2C[C@@H](N(C)C(=O)C(C)(C)c3cc(C(F)(F)F)cc(C(F)(F)F)c3)[C@H](c3ccc(F)cc3)C2)CC1` (racemic) [Example 16, rac-N-[(3S,4R)-1-(4-Acetyl-piperazine-1-carbonyl)-4-(4-fluoro-phenyl)-pyrrolidin-3-yl]-2-(3,5-bis-trifluoromethyl-phenyl)-N-methyl-isobutyramide] were, in that order, 0.00141 µM and 0.309 µM.
`CN(C(=O)C(C)(C)c1cc(Cl)cc(Cl)c1)[C@@H]1CN(C(=O)N2CCOCC2)C[C@H]1c1ccc(F)cc1` (racemic) [Example 24, rac-2-(3,5-Dichloro-phenyl)-N-[(3S,4R)-4-(4-fluoro-phenyl)-1-(morpholine-4-carbonyl)-pyrrolidin-3-yl]-N-methyl-isobutyramide]: the Ki amounted to 0.00192 µM on human NK1 receptor and 0.2 µM in assay [1].
In the same order, the values of `CN(C(=O)C(C)(C)c1cc(Cl)cc(Cl)c1)[C@@H]1CN(C(=O)N2CCN(S(C)(=O)=O)CC2)C[C@H]1c1ccc(Cl)cc1` (racemic) [Example 55, rac-N-[(3S,4R)-4-(4-Chloro-phenyl)-1-(4-methanesulfonyl-piperazine-1-carbonyl)-pyrrolidin-3-yl]-2-(3,5-dichloro-phenyl)-N-methyl-isobutyramide] are 0.00316 µM and 0.03 µM.
Turning to `CN(C(=O)C(C)(C)c1cc(C(F)(F)F)cc(C(F)(F)F)c1)[C@@H]1CN(C(=O)N2CCN(S(C)(=O)=O)CC2)C[C@H]1c1ccccc1` (racemic) [Example 22, rac-2-(3,5-Bis-trifluoromethyl-phenyl)-N-[(3S,4R)-1-(4-methanesulfonyl-piperazine-1-carbonyl)-4-phenyl-pyrrolidin-3-yl]-N-methyl-isobutyramide], the Ki turned out to be 0.000875 µM on human NK1 receptor and 0.203 µM in assay [1].
Consider `CC(=O)N(C)C1(c2ccccc2)CCN(CCC[C@]2(c3ccc(Cl)c(Cl)c3)CCCN(C(=O)c3ccccc3)C2)CC1` [SR 142,801, Osanetant], for which the “activity on positive symptoms of schizophrenia” value in assay [2] (altered behaviour, delusion, hallucinations, extreme emotions, excited motor activity, incoherent speech) was “active”. The “activity in the treatment of negative symptoms of schizophrenia” value in assay [2] (depression, anhedonia, social isolation, memory and attention deficits) is “inactive”.
Turning to `CN(C(=O)C(C)(C)c1cc(C(F)(F)F)cc(C(F)(F)F)c1)[C@@H]1CN(C(=O)N2CCOCC2)C[C@H]1c1ccc(Cl)cc1` (racemic) [Example 2, rac-2-(3,5-Bis-trifluoromethyl-phenyl)-N-[(3S,4R)-4-(4-chloro-phenyl)-1-(morpholine-4-carbonyl)-pyrrolidin-3-yl]-N-methyl-isobutyramide], the Ki was 0.00235 µM on human NK1 receptor and 0.457 µM in assay [1].
In the same order, the values of `Cc1cc(F)ccc1[C@@H]1CN(C(=O)N2CCOCC2)C[C@H]1N(C)C(=O)C(C)(C)c1cc(C(F)(F)F)cc(C(F)(F)F)c1` (racemic) [Example 27, rac-2-(3,5-Bis-trifluoromethyl-phenyl)-N-[(3S,4R)-4-(4-fluoro-2-methyl-phenyl)-1-(morpholine-4-carbonyl)-pyrrolidin-3-yl]-N-methyl-isobutyramide] are 0.000341 µM and 0.276 µM.

The term Ki denotes the dissociation constant of the complex between target and ligand, obtained from inhibition or displacement.
